Columns and labels:
Type in all cases: cell-based
human TLR2 = target: T1, human TLR2 (Homo sapiens, UniProt O60603); test: NF-κB activation (secreted alkaline phosphatase reporter) in HEK293 cells expressing human TLR2; conditions: HEK293/hTLR2 cell line; polynucleotide final concentration 10 μg/mL; 16-20 hours
T1 construct: host or cells: HEK293
Protocol: (§1) Toll-like receptors (TLR) are known to interact with a number of natural and synthetic molecules that can function as immune adjuvants. Examples of these molecules are Poly (I:C) polynucleotides, lipopolysaccharide and CpG-containing polynucleotides. The interaction of non-DNA base-containing polynucleotides (SEQ ID NOs: 1-3) to interact with TLR and induce down-stream signaling was tested by assessing NF-κB activation in HEK293 cells expressing human TLR2, 3, 4, 5, 7, 8 and 9. TLR engagement was determined by measurement of secreted alkaline phosphatase, under the control of a reporter inducible by NF-κB. Appropriate positive controls were used for each TLR. The non-DNA base-containing polynucleotides were dissolved in sterile water at a concentration of 100 μg/mL, and used at a final concentration of 10 μg/mL. HEK293 cells containing the appropriate TLR and NF-κB reporting system (InvivoGen, San Diego, Calif., USA) were placed in wells of 96 well plates (25,000-50,000 cells, in a final volume of 200 μL medium designed for the detection of NF-κB induced secreted alkaline phosphatase expression), and incubated with non-DNA base-containing polynucleotides or positive controls for 16-20 hours. TLR activating activity was determined by measurement of absorbance at 650 nm wavelength using a Coulter AD340C absorbance detector. The results shown are expressed as Optical Density (OD).

human TLR9 = target: T2, human TLR9 (Homo sapiens, UniProt Q9NR96); test: NF-κB activation (secreted alkaline phosphatase reporter) in HEK293 cells expressing human TLR9; conditions: HEK293/hTLR9 cell line; polynucleotide final concentration 10 μg/mL; 16-20 hours
T2 construct: host or cells: HEK293
T2 sequence (Q9NR96 26-1032): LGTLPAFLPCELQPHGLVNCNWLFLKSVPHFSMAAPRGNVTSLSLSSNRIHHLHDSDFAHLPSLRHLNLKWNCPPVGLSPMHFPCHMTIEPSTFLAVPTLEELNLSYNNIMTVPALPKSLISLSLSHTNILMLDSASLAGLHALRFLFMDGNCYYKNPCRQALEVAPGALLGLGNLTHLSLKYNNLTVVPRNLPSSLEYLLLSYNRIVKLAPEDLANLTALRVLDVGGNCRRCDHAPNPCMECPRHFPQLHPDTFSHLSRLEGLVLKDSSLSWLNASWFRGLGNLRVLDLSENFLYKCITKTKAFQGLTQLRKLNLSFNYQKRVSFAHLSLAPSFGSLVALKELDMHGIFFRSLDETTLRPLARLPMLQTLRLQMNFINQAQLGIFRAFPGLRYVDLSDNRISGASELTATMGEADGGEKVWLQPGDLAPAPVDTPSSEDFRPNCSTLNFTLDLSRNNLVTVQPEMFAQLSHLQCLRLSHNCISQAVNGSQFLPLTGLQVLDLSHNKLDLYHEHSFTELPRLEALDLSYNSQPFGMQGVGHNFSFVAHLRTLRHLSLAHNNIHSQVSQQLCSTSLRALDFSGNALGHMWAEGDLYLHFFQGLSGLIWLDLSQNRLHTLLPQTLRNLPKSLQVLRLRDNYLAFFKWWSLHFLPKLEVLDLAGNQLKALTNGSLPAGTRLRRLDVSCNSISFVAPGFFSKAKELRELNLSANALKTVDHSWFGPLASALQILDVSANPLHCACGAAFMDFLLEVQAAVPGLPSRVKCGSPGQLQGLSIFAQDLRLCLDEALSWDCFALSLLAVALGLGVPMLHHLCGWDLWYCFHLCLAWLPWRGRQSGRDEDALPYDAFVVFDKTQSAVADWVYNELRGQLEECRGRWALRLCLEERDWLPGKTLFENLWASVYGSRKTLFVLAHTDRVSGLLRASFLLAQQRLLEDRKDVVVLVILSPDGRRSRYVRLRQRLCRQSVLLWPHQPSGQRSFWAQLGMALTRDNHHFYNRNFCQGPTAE
Protocol: as §1, with “The non-DNA base-containing polynucleotides were dissolved in sterile water at a concentration of 100 μg/mL, and used at a final concentration of 10 μg/mL.” left out

NF-κB control cells = test: NF-κB reporter control cells (secreted alkaline phosphatase); conditions: polynucleotide final concentration 10 μg/mL, 16-20 hours
Protocol: as §1

human PBMC = test: Induction of cytokines from human PBMC (ELISA cytokine capture assay); conditions: PBMC of 3 healthy adults, 48 h; increase two-fold that of background control; SEQ ID NOs 1-3 100 μg/mL, CpG 2006 and MCC 1-100 μg/mL, LPS 10 μg/mL
Excerpt: A number of immune adjuvants are known to be capable of eliciting cytokines from human PBMC cells. Examples of such adjuvants are alum, lipopolysaccharide, monophosphoryl lipid A, CpG-containing polynucleotides and non-CpG-containing ODN's, as well as mycobacterial cell wall-DNA complex (MCC). […] PBMC were isolated from whole blood using standard Ficoll-Paque (GE Healthcare Life Sciences, Baie d'Urfé, QC, Canada) gradient centrifugation, and placed in tissue culture plates at a concentration of 10^6 cells/mL (total volume: 1 mL in RPMI 1640 medium containing 10% heat-inactivated FBS, both from Wisent, St-Bruno, QC, Canada) and 50 μg/mL gentamycin sulfate (Sigma-Aldrich Canada, Oakville, ON, Canada). SEQ ID NOs: 1, 2 or 3 were added to give a final concentration of 100 μg/mL, and the cells were cultivated for 48 h. Cytokines (IL-1β, IL-2, IL-6, IL-10 and IL-12p40) in the supernatant at the end of incubation were determined by ELISA using a cytokine capture assay process (Biosource, Camarillo, Calif.). SEQ ID NO: 32 CpG 2006 ODN (1-100 μg/mL, 5′-[…]-3′, […]), MCC (1-100 μg/mL) and LPS (10 μg/mL) were used as positive controls.

T1 sequence (O60603 21-784): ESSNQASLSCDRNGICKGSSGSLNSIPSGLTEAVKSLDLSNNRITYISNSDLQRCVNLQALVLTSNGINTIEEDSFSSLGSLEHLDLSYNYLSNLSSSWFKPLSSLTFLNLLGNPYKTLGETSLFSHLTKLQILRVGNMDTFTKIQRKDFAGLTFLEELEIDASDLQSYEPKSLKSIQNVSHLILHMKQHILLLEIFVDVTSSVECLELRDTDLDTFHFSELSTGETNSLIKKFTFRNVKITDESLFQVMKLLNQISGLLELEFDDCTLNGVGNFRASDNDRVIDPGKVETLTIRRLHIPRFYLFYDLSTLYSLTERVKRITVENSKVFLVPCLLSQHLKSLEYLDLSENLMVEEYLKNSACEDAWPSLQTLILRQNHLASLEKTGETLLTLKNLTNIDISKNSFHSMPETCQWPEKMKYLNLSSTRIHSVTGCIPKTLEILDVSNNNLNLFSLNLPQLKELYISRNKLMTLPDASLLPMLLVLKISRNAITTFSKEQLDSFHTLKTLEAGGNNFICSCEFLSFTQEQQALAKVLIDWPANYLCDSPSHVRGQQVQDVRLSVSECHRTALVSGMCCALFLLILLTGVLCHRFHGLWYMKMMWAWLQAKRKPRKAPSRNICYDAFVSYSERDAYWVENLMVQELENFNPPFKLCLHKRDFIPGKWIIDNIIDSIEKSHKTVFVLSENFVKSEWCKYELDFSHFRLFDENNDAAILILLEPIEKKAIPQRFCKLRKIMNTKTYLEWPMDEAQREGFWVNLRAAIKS

Substance | TLR activation, Optical Density at 650 nm, hTLR2 (human TLR2) | TLR activation, Optical Density at 650 nm, hTLR9 (human TLR9) | Optical Density at 650 nm, NF-κB control cells (NF-κB control cells) | Number of individuals responding, IL-1β (human PBMC) | Number of individuals responding, IL-2 (human PBMC) | Number of individuals responding, IL-6 (human PBMC) | Number of individuals responding, IL-10 (human PBMC) | Number of individuals responding, IL-12p40 (human PBMC)
UUGTUU [SEQ ID NO: 2] | 0.095 | 0.090 | 0.076 | 0/3 | 0/3 | 1/3 | 0/3 | 3/3
IIGTII [SEQ ID NO: 3] | 0.095 | 0.083 | 0.074 | 0/3 | 0/3 | 3/3 | 0/3 | 0/3
NebGGTGNeb (DNA NGGTGN; Nebularine at both ends, sugar and linkages not given here, further chemistry not given here) [SEQ ID NO: 1, 5′-OH, 3′-OH non-DNA base-containing polynucleotide] | 0.093 | 0.074 | 0.078 | 3/3 | 0/3 | 3/3 | 0/3 | 3/3

Source: patent publication US20110111016A1, “NON-DNA BASE-CONTAINING POLYNUCLEOTIDE COMPOSITIONS AND THEIR USE FOR THE MODULATION OF IMMUNE RESPONSES” (priority 2009, published 2011)
